According to patent US20150315188A1, “COMPOUNDS AND METHODS FOR TREATMENT OF HYPERTENSION” (MEDIVATION TECHNOLOGIES, INC., priority 2012, published 2015):

Columns and labels:
[1] = molecular target: T1, Human adrenergic α2B receptor (Homo sapiens, UniProt P18089); experiment: Radioligand binding, adrenergic α2B (Protocol Group A); design: expressed in transfected cells; host or cells: CHO-K1; conditions: 0.03 μM compound, [3H]Rauwolscine, read-out: percent inhibition of specific binding, Adrenergic α2B
T1 sequence (P18089 1-450): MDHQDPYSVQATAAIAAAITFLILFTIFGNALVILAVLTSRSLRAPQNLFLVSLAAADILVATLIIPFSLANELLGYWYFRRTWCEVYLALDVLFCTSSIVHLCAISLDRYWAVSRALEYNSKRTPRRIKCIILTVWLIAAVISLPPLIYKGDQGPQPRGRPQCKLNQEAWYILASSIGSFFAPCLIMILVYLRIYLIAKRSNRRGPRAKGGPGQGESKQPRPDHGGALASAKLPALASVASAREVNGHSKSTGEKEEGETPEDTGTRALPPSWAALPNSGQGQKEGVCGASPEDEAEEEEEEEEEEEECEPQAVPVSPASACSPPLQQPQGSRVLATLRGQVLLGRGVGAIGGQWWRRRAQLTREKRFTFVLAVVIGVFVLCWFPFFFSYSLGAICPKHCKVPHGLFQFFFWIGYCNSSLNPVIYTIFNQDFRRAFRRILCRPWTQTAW
Method: To evaluate in radioligand binding assays the activity of compounds of the invention, human recombinant adrenergic α2B receptor expressed in Chinese hamster ovary (CHO) K1 cells (Uhlen, S. et al, Eur. J. Pharmacol. 343(1):93, 1998) in a modified Tris-HCl buffer (50 mM Tris-HCl, pH 7.4, 12.5 mM MgCl2, 1 mM EDTA, 0.2% BSA) was used. Compounds of the invention were incubated with 2.5 nM [3H]Rauwolscine for 60 min at 25° C. Non-specific binding was estimated in the presence of 10 μM Prazosin. Receptor proteins were filtered and washed, the filters were then counted to determine [3H]Rauwolscine specifically bound. Compounds were screened at 1 μM or lower, using 1% DMSO as vehicle. Compounds of the invention were tested in this biochemical assay and percent inhibition of specific binding was determined. Biochemical assay results are presented as the percent inhibition of specific binding in Table B1a.

[2] = molecular target: T2, rat adrenergic α1B receptor (Rattus norvegicus, UniProt P15823); experiment: Radioligand binding, adrenergic α1B (Protocol Group A); conditions: 0.1 μM compound, [3H]Prazosin, read-out: percent inhibition of specific binding, Adrenergic α1B
T2 construct: rat adrenergic α1B receptor obtained from Wistar Rat liver; from tissue; host or cells: Wistar rat liver
T2 sequence (P15823 1-515): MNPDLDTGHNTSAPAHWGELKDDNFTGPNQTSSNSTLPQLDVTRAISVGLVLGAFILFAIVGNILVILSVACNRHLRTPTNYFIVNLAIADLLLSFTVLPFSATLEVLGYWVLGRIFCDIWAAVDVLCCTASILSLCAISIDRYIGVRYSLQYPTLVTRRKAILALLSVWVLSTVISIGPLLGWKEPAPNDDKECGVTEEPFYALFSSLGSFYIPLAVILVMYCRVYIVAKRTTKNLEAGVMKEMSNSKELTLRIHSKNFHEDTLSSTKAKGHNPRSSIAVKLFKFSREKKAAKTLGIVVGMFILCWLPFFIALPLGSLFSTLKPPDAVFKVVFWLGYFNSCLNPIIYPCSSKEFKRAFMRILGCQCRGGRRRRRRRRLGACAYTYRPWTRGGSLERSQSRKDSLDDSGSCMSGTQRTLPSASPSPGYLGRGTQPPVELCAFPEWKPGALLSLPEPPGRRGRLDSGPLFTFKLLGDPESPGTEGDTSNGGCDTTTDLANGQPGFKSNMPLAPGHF
Method: To evaluate in radioligand binding assays the activity of compounds of the invention, rat adrenergic α1B receptor obtained from Wistar Rat liver (Garcia-S'ainz, J. et al, Biochem. Biophys. Res. Commun. 186:760, 1992; Michel, A. et al, Br. J. Pharmacol. 98:883, 1989) in a modified Tris-HCl buffer (50 mM Tris-HCl buffer, pH 7.4, 0.5 mM EDTA) was used. Compounds of the invention were incubated with 0.25 nM [^3H]Prazosin for 60 min at 25° C. Non-specific binding was estimated in the presence of 10 μM phentolamine. Receptor proteins were filtered and washed, the filters were then counted to determine [^3H]Prazosin specifically bound. Compounds were screened at 1 μM or lower, using 1% DMSO as vehicle. Compounds of the invention were tested in this biochemical assay and percent inhibition of specific binding was determined. Biochemical assay results are presented as the percent inhibition of specific binding in Table B1a.

[3] = Epimerization of chiral compounds in simulated gastric fluid (SGF); format: physicochemical; conditions: 24 h
Method: Epimerization Method for Studying Chiral Compounds in Simulated Gastric Fluid (SGF) and Stimulated Intestinal Fluid (SIF)
A measured quantity of sample was dissolved in SGF or SIF at the concentration of 1 mg/mL in a volumetric flask and appropriate number of aliquots of this solution were transferred to incubation vials as per the given time points. For the sample of zero hour, the appropriate volume of saturated Bicarbonate solution was added immediately to the sample, and was stirred for 5-10 mins. The compound was extracted in a suitable solvent (e.g. Ethyl acetate), decanting the organic layer. The organic solvent was evaporated, and the residue was dissolved in an appropriate solvent (Methanol/Ethanol), filtered through a 0.22 μm membrane filter and analyzed by chiral HPLC. The remaining aliquots were incubated at different temperatures i.e. 25° C. and 37° C. in a water bath as per the given time points. The respective samples were retrieved from the incubator/Water bath at different time intervals as per the given time points: 90 mins, 4 h, 6 h, 12 h and 24 h, and the same procedure for sample preparation was followed for the zero hour sample.
All the chromatograms were obtained at the specified wavelength, compiled and the curves between Time Vs % Area were plotted.

Row | inhibition at 0.03 µM [1] [%] | inhibition at 0.1 µM [2] [%] | epimerization ([3]; 25° C.) | epimerization ([3]; 37° C.) [%] | Compound
1 | 86 | 35 |  |  | Cc1ccc2c(c1)c1c(n2CC(OC(=O)N2CCCC2)c2ccncc2)CCN(C)C1 (single isomer, unassigned) [4b]
2 | 107 | 91 |  |  | Cc1ccc2c(c1)c1c(n2CC(C)(O)c2ccc(F)nc2)CCN2CCCC12 (single isomer, unassigned) [6a]
3 |  |  | up to 41.29% | 50.13 | Cc1ccc2c(c1)c1c(n2CC(O)c2ccncc2)CCN2CCCC12 (single isomer, unassigned) [Compound No. 178d]
4 |  |  | 2% | 21.39 | Cc1cc(F)c2c(c1)c1c(n2CC(C)(O)c2cccnc2)CCN2CCCC12 (centres unmarked) [Compound No. 79a]
